Assay results reported in patent publication US20240199692A1 (priority 2019, published 2024).
*1 amine or outer side, *2 acyl side, *3 side chain or, on linkers, in order; H or OH if unused. Where a SMILES comes first, the peptide text is derived from it. Bridges are numbered along the chain shown (N, C = ends). [ ]: non-standard residue; d: D form. The star is where a group is joined. Phenylsulfonyl(4-anisamido) = COc1ccc(C(=O)Nc2ccc(S(=O)(=O)*)cc2)cc1; Benzoyl(4-O-C6H4-4-CONHMe) = CNC(=O)c1ccc(Oc2ccc(C(=O)*)cc2)cc1; Benzenesulfonyl(4-OPh) = O=S(=O)(c1ccc(Oc2ccccc2)cc1)*; X8 = CCCOc1ccc(C(=O)Nc2ccc(S(=O)(=O)*)cc2)cc1; Benzoyl(4-OPh) = O=C(c1ccc(Oc2ccccc2)cc1)*; d(γGlu) = O=C(O)[C@@H](CCC(=O)[*:2])N[*:1]; d(βAsp) = O=C(O)[C@@H](CC(=O)[*:2])N[*:1]; NMeI = CC[C@H](C)[C@H](NC)C(=O)O; NMeE = CN[C@@H](CCC(=O)O)C(=O)O; NMeN = CN[C@@H](CC(N)=O)C(=O)O; NMeM = CN[C@@H](CCSC)C(=O)O; β3hP = O=C(O)C[C@@H]1CCCN1; Dab = NCC[C@H](N)C(=O)O; Ahx = NCCCCCC(=O)O; Ava = NCCCCC(=O)O; GABA = NCCCC(=O)O; βAla = NCCC(=O)O; Sar = CNCC(=O)O

These compounds were tested against T1, MMP2 (Homo sapiens, UniProt P08253) (assay: Inhibitory effects on human MMP2 (Method 1), enzyme assay with MOCAc-Pro-Leu-Gly-Leu-A2pr(Dnp)-Ala-Arg-NH2 substrate, 96-well). Settings: Test Example No. 1-1 (Method 1, 96-well microplate); read-out: Human MMP2, IC50.
T1 sequence (P08253 110-660): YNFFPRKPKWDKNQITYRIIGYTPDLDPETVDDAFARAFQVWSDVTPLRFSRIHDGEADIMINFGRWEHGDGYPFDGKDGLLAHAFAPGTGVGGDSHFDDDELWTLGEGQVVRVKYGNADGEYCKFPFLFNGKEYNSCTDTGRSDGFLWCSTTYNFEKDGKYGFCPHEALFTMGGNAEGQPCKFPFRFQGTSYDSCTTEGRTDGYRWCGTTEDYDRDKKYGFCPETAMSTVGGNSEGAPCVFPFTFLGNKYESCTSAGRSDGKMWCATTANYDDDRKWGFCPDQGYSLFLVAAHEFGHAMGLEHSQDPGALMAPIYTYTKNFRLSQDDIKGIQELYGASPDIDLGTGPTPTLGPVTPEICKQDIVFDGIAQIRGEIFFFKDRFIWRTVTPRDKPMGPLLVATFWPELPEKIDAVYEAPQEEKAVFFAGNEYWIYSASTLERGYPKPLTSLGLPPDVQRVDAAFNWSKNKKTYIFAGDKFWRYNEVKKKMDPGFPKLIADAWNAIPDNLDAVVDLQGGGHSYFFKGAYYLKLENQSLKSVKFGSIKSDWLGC
Format: biochemical
Description: In a reaction solution [50 mmol/L Tris-HCl (pH 7.5), 150 mmol/L NaCl, 10 mmol/L CaCl2, 0.05% Brij L23], 100 μg/mL human recombinant MMP2 enzyme and 1 mmol/L 4-Aminophenylmercuric acetate were mixed together, and reacted at 37° C. for 60 minutes. The human MMP2 activated through the reaction was poured into a 96-well microplate to reach a final concentration of 0.7 or 7 ng/mL.

How did the IC50 turn out when `CC[C@H](C)[C@@H](C(=O)N[C@@H](CC(=O)O)C(=O)N[C@@H](C)C(=O)N[C@@H](CC(C)C)C(=O)N(C)[C@H](C(=O)N1CCC[C@H]1C(N)=O)[C@@H](C)CC)N(C)C(=O)CCCNC(=O)c1ccc(Oc2ccccc2)cc1` [Compound 121] ({Benzoyl(4-OPh)-GABA}-[NMeI]DAL[NMeI]P-NH2; N-terminus assumed) was run?
The IC50 was 190 pM.

How did the IC50 turn out when `CC(C)C[C@H](NC(=O)[C@H](CCN)NC(=O)[C@H](CC(=O)O)NC(=O)[C@H](CC(N)=O)N(C)C(=O)CCCNC(=O)c1ccc(Oc2ccccc2)cc1)C(=O)N(C)[C@@H](CCC(=O)O)C(=O)N1CCC[C@H]1C(N)=O` [Compound 113] ({Benzoyl(4-OPh)-GABA}-[NMeN]D[Dab]L[NMeE]P-NH2; N-terminus assumed) was run?
Its IC50 is 2200 pM.

For `CC[C@H](C)[C@@H](C(=O)N1CCC[C@H]1CC(N)=O)N(C)C(=O)[C@H](CC(C)C)NC(=O)[C@H](CCN)NC(=O)[C@H](CC(=O)O)NC(=O)[C@H](CCCCN)NC(=O)CCCCNC(=O)c1ccc(Oc2ccc(C(=O)NC)cc2)cc1` [Compound 185] ({Benzoyl(4-O-C6H4-4-CONHMe)-Ava}-KD[Dab]L[NMeI][β3hP]-NH2; N-terminus assumed), which IC50 is on record?
Its IC50 is 1000 pM.

With `CC[C@H](C)[C@@H](C(=O)N1CCC[C@H]1CC(N)=O)N(C)C(=O)[C@H](CC(C)C)NC(=O)[C@H](CCN)NC(=O)C[C@@H](NS(=O)(=O)c1ccc(NC(=O)c2ccc(OC)cc2)cc1)C(=O)O` [Compound 694] ({Phenylsulfonyl(4-anisamido)-d(βAsp)}-[Dab]L[NMeI][β3hP]-NH2; N-terminus assumed) as the compound, how does the IC50 read?
The IC50 was 94 pM.

With `CNC(=O)c1ccc(Oc2ccc(C(=O)NCCCCCC(=O)N[C@@H](CCCCN)C(=O)N[C@@H](CC(=O)O)C(=O)N[C@@H](CCN)C(=O)N[C@@H](CC(C)C)C(=O)N(C)[C@@H](CCC(=O)O)C(=O)N3CCC[C@H]3CC(N)=O)cc2)cc1` [Compound 186] ({Benzoyl(4-O-C6H4-4-CONHMe)-Ahx}-KD[Dab]L[NMeE][β3hP]-NH2; N-terminus assumed) as the compound, how does the IC50 read?
The IC50 was 2000 pM.

How did the IC50 turn out when `CC[C@H](C)[C@@H](C(=O)N1CCC[C@H]1C(N)=O)N(C)C(=O)[C@H](CC(C)C)NC(=O)[C@H](C)NC(=O)[C@H](CC(=O)O)NC(=O)CN(C)C(=O)CCCNC(=O)c1ccc(Oc2ccccc2)cc1` [Compound 115] ({Benzoyl(4-OPh)-GABA}-[Sar]DAL[NMeI]P-NH2; N-terminus assumed) was run?
Its IC50 is 420 pM.

Which IC50 does the source give for `CC[C@H](C)[C@@H](C(=O)N1CCC[C@H]1C(N)=O)N(C)C(=O)[C@H](CC(C)C)NC(=O)[C@H](C)NC(=O)[C@H](CC(=O)O)NC(=O)[C@H](CCSC)N(C)C(=O)CCCNC(=O)c1ccc(Oc2ccccc2)cc1` [Compound 122] ({Benzoyl(4-OPh)-GABA}-[NMeM]DAL[NMeI]P-NH2; N-terminus assumed) here?
Its IC50 is 160 pM.

With `CCCOc1ccc(C(=O)Nc2ccc(S(=O)(=O)N[C@H](CCC(=O)N[C@@H](CCN)C(=O)N[C@@H](CC(C)C)C(=O)N(C)[C@H](C(=O)N3CCC[C@H]3CC(N)=O)[C@@H](C)CC)C(=O)O)cc2)cc1` [Compound 696] ({X8-d(γGlu)}-[Dab]L[NMeI][β3hP]-NH2; N-terminus assumed) as the compound, how does the IC50 read?
Its IC50 is 220 pM.

With `CC[C@H](C)[C@@H](C(=O)N1CCC[C@H]1C(N)=O)N(C)C(=O)[C@H](CC(C)C)NC(=O)[C@H](C)NC(=O)[C@H](CC(=O)O)NC(=O)[C@H](CC(N)=O)N(C)C(=O)CCCNC(=O)c1ccc(Oc2ccccc2)cc1` [Compound 94] ({Benzoyl(4-OPh)-GABA}-[NMeN]DAL[NMeI]P-NH2; N-terminus assumed) as the compound, how does the IC50 read?
The IC50 was 88 pM.

Same assay, conditions: Test Example No. 1-1 (Method 1, 96-well); read-out: Human MMP2, IC50

With `CC[C@H](C)[C@@H](C(=O)N1CCC[C@H]1CC(N)=O)N(C)C(=O)[C@@H]1CCCCNC(=O)CCNC(=O)CC[C@H](NC(=O)CCCNS(=O)(=O)c2ccc(Oc3ccccc3)cc2)C(=O)N[C@@H](CC(=O)O)C(=O)N[C@@H](CCN)C(=O)N1` [Compound 894] ({Benzenesulfonyl(4-OPh)-GABA}-ED[Dab]K[NMeI][β3hP]-NH2; linker 1-4 via βAla (inferred); N-terminus assumed) as the compound, how does the IC50 read?
Its IC50 is 1100 pM.
